According to the supplement of paper PMC10307832:

Key:
Assay in all cases: relative viability (nuclei count vs DMSO), 5 days (fraction); higher = more cells survive
[1] = compound: CC(C)C[C@H](NC(=O)[C@H](CCc1ccccc1)NC(=O)CN1CCOCC1)C(=O)N[C@@H](Cc1ccccc1)C(=O)N[C@@H](CC(C)C)C(=O)[C@@]1(C)CO1 [Carfilzomib] + C[C@@H](Oc1cc(-c2cnn(C3CCNCC3)c2)cnc1N)c1c(Cl)ccc(F)c1Cl [Crizotinib] (partner 1 µM)
In short: (§1)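 Lung cancer cell lines, seeded in 1536-well plates, were treated the following day by pin tool with a single drug or with five library-drug doses (not always all listed) in √10 steps on top of a fixed anchor-drug dose. Cells were fixed and nuclei stained in one step after 5 days, and nuclei were counted. Relative viability is the nuclei count for treated wells divided by that for vehicle wells, reported as medians of duplicate plates.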

[2] = compound: C[C@@H](Oc1cc(-c2cnn(C3CCNCC3)c2)cnc1N)c1c(Cl)ccc(F)c1Cl [Crizotinib] + CC(C)C[C@H](NC(=O)[C@H](Cc1ccccc1)NC(=O)c1cnccn1)B(O)O [Bortezomib] (partner 0.002 µM)
In short: as §1

[3] = compound: O=C(c1cc(Cc2n[nH]c(=O)c3ccccc23)ccc1F)N1CCN(C(=O)C2CC2)CC1 [Olaparib] + CS(=O)(=O)CCNCc1ccc(-c2ccc3ncnc(Nc4ccc(OCc5cccc(F)c5)c(Cl)c4)c3c2)o1 [Lapatinib] (partner 2 µM)
In short: as §1

[4] = compound: C[C@@H](Oc1cc(-c2cnn(C3CCNCC3)c2)cnc1N)c1c(Cl)ccc(F)c1Cl [Crizotinib] + Cc1cc(Nc2cc(N3CCN(C)CC3)nc(Sc3ccc(NC(=O)C4CC4)cc3)n2)n[nH]1 [Tozasertib] (partner 0.1 µM)
In short: as §1

Cell Line | relative viability ([1]; first compound 0.001 µM) | relative viability ([1]; first compound 0.003162 µM) | relative viability ([1]; first compound 0.01 µM) | relative viability ([1]; first compound 0.03162 µM) | relative viability ([1]; first compound 0.1 µM) | relative viability ([2]; first compound 0.01 µM) | relative viability ([2]; first compound 0.03162 µM) | relative viability ([2]; first compound 0.3162 µM) | relative viability ([2]; first compound 1 µM) | relative viability ([3]; first compound 0.08 µM) | relative viability ([3]; first compound 0.253 µM) | relative viability ([3]; first compound 2.53 µM) | relative viability ([3]; first compound 8 µM) | relative viability ([4]; first compound 0.01 µM) | relative viability ([4]; first compound 0.03162 µM) | relative viability ([4]; first compound 0.1 µM) | relative viability ([4]; first compound 0.3162 µM) | relative viability ([4]; first compound 1 µM) | relative viability ([2]; first compound 0.1 µM)
201T | 1.02 | 1.1 | 1.04 | 1.06 | 0.91 | 1.07 | 1.09 | 1.14 | 1.2 | 1.06 | 0.973 | 0.939 | 1 | 0.924 | 0.947 | 0.921 | 0.927 | 0.978 | 
A549 | 0.802 | 0.776 | 0.743 | 0.182 | 0.0494 |  |  |  |  | 1.21 | 0.833 | 0.983 | 0.666 |  |  |  |  |  | 
A-427 | 0.837 | 0.996 | 0.862 | 0.212 | 0.122 | 0.91 | 1.03 |  | 0.999 | 1.13 | 0.931 | 0.879 | 1.02 | 0.17 | 0.199 | 0.215 |  | 0.212 | 0.953
ABC-1 | 1.15 | 0.805 | 0.385 | 0.177 | 0.172 | 0.277 | 0.368 | 0.279 | 0.299 | 1.01 | 1.07 | 1.02 | 1.25 |  | 0.196 | 0.16 | 0.177 | 0.186 | 0.292
BEN | 0.898 | 1.18 | 0.923 | 0.757 | 0.311 | 0.862 | 0.788 | 0.815 | 0.78 | 0.636 | 0.515 | 0.784 | 0.712 | 0.452 | 0.55 | 0.53 | 0.414 | 0.446 | 
CAL-12T |  | 0.814 | 0.72 | 0.18 | 0.0912 | 0.991 | 1.02 |  | 0.907 | 0.94 | 0.643 | 0.631 | 0.664 | 0.331 | 0.254 | 0.384 |  | 0.3 | 1.13
COR-L23 | 0.71 | 0.828 | 0.731 | 0.0647 | 0.0659 | 0.927 | 0.9 | 0.989 | 0.96 | 1.26 | 0.815 | 0.739 | 0.438 | 0.21 | 0.191 | 0.22 | 0.195 | 0.194 | 0.915
COR-L 105 | 0.84 | 0.743 | 0.608 | 0.262 | 0.17 | 0.825 | 0.778 | 0.699 | 0.941 | 0.341 | 0.348 | 0.363 | 0.317 | 0.331 | 0.361 | 0.367 | 0.326 | 0.344 | 0.787
Calu-6 | 0.747 | 0.834 | 0.811 | 0.334 | 0.0815 | 0.936 | 0.988 | 0.892 | 0.958 | 1.23 | 0.995 | 0.893 | 0.724 |  |  |  |  |  | 1.03
ChaGo-K-1 |  | 1.2 | 1.18 | 0.634 | 0.303 | 0.947 |  |  | 0.96 |  |  |  |  | 0.24 | 0.222 | 0.222 | 0.209 | 0.246 | 1.2
EBC-1 | 0.212 | 0.18 | 0.183 | 0.131 | 0.111 | 0.599 | 0.564 | 0.231 | 0.259 | 0.247 | 0.235 | 0.236 | 0.201 |  |  |  |  |  | 0.28
EKVX | 0.936 | 0.819 | 0.941 | 0.887 | 0.348 | 1.06 | 1.05 | 0.934 | 1.1 | 0.228 | 0.162 | 0.209 | 0.213 | 0.392 | 0.398 | 0.426 | 0.349 | 0.405 | 0.959
EMC-BAC-2 | 0.779 | 0.896 | 0.928 | 0.661 | 0.229 | 1.04 | 1.08 | 1 | 1.03 | 0.921 | 0.88 | 0.852 | 0.758 | 0.326 | 0.281 | 0.304 | 0.285 | 0.275 | 0.997
EPLC-272H | 0.441 | 1.07 | 0.811 | 0.11 | 0.0759 | 0.87 | 0.865 | 0.912 |  | 1.16 | 0.848 | 1.08 | 1.01 | 0.204 | 0.26 | 0.385 | 0.232 | 0.306 | 1.03
H3255 | 0.962 | 1.04 | 1.07 | 0.761 | 0.186 | 0.736 | 0.925 | 0.681 | 0.659 | 0.229 | 0.245 | 0.256 | 0.219 | 0.71 | 0.637 | 0.791 | 0.599 | 0.655 | 0.814
HARA | 1.05 | 1.06 | 1.12 | 0.0563 | 0.0555 | 1.02 | 1.08 | 1.13 | 1.12 | 0.836 | 0.725 | 0.699 | 0.763 | 0.106 | 0.079 | 0.1 |  | 0.116 | 1.11
HCC-15 | 0.765 | 0.85 | 0.844 | 0.545 | 0.185 | 0.916 |  | 0.826 | 0.891 | 0.999 | 0.752 | 0.808 | 0.765 | 0.408 | 0.377 | 0.389 |  | 0.339 | 1.06
HCC-44 | 0.811 | 0.824 | 0.866 | 0.614 | 0.149 | 0.903 | 0.751 | 0.773 | 0.952 | 1.02 | 0.946 | 1.11 | 1.05 | 0.936 |  | 0.992 | 0.836 | 1.01 | 0.936
HCC-78 | 0.323 | 0.383 | 0.351 | 0.345 | 0.144 | 0.437 | 0.466 | 0.399 | 0.447 | 0.853 | 0.522 | 1.01 | 0.666 |  | 0.47 | 0.419 | 0.391 | 0.442 | 0.472
